Test results taken from PMC12518639, “Apomorphine is a novel necroptosis inhibitor targeting mixed lineage kinase domain-like protein oligomerization” (Cell Death Discovery, 2025).

Experiments:
Nt-hMLKL^F148A = molecular target: T1, Nt-hMLKL^F148A (Homo sapiens, UniProt Q8NB16, F148A); experiment: SPR binding to Nt-hMLKL F148A mutant; settings: versus Nt-hMLKL
T1 construct: an N-terminal domain (Nt-hMLKL, amino acids 2–154, MW: 23 kDa) involved in oligomerization; His (N); made in house; host or cells: E. coli BL21
Excerpt: (§1) The hMLKL plasmid (RC213152, OriGene, Rockville, MD, USA), and recombinant Wt-hMLKL (ab241453, Abcam) and Wt-mMLKL (MBS1379843, MyBioSource, San Diego, CA, USA) proteins were purchased. Nt-hMLKL (2–154), Nt-mMLKL (1–180), and Ct-hMLKL (183–471) were generated using the pBT7-N-His vector. Nt-hMLKL^C86A, Nt-hMLKL^F148A, -hMLKL^C86A/L89A/D94A, and Nt-hMLKL^R145A/R146A/F148A/M150A were generated using the Site-directed Mutagenesis Kit (EZ004S, Enzynomics, S. Korea). These constructs were subcloned into pBT7-N-His and pET-15b plasmid vectors. E. coli BL21 cells transformed with the cloned expression vectors were cultured in LB medium and supplemented with 100 μg/mL ampicillin until an OD at 600 nm of 0.5–0.6 was reached. The cultures were induced by 1 mM IPTG (367-93-1, Sigma-Aldrich). The cells were lysed and centrifuged. The clear supernatants were subjected to Ni-NTA affinity chromatography (175018169, QIAGEN, Hilden, Germany). Plasmids encoding mMLKL (1–464)–gyrase fusion constructs were kindly provided by Prof. […]
(§2) The interactions of Wt-hMLKL, Wt-mMLKL, Nt-mMLKL, Nt, and Ct-hMLKL proteins with Re-APO or Ox-APO were detected through SPR analysis using Biacore™ T200 (Cytiva, Marlborough, MA, USA). […] Sensorgrams were recorded and analyzed in real-time using the control software in the BIAcore T200 system. All data were analyzed using the BIA evaluation software (Cytiva).

[1] = molecular target: T2, Nt-hMLKL^R145A/R146A/F148A/M150A (Homo sapiens, UniProt Q8NB16, F148A/M150A/R145A/R146A); experiment: SPR binding to Nt-hMLKL quadruple mutant; settings: CM5 chip
T2 construct: an N-terminal domain (Nt-hMLKL, amino acids 2–154, MW: 23 kDa) involved in oligomerization; His (N); made in house; host or cells: E. coli BL21
Excerpt: as §1, §2

THP-1-HMGB1-Lucia cells = experiment: TBZ-induced necroptosis screening by HMGB1-luciferase release; type: cell-based, human; settings: Homo sapiens; 20 μM compound with TBZ, 8 h; TBZ alone = 100, DPBS = 0; read-out: % Inhibition (luciferase activity relative to TBZ-treated supernatant)
Protocol: To identify potential inhibitors of the necroptosis pathway targeting MLKL or the process of p-MLKL pore formation on the membrane, we screened a library of 2150 compounds, including FDA-approved drugs and those in phase 1–3 clinical trials, using THP-1-HMGB1-Lucia™ cells expressing the HMGB1-luciferase fusion protein. The cells were treated with a necroptosis-inducing mixture containing TNF-α, BV6, and Z-VAD-FMK (TBZ) in addition to the compound library (Fig. 1A). The supernatants were harvested to measure luciferase activities for necroptosis. The luciferase activities of cell supernatants treated with TBZ alone were considered as the maximum release (100%) of HMGB1-luciferase. NEC-1, a known RIP1 inhibitor used in both humans and mice, was used as a positive control. […] Next, we performed a propidium iodide (PI) uptake assay to exclude cytotoxic compounds using THP-1 cells. Then, we selected candidate molecules that were arbitrarily less than 30% of those treated with TBZ. […] Next, the inhibition levels of p-MLKL were tested to select MLKL-targeting molecules (Figs. 1C and S1A). Compounds that reduced p-MLKL levels to less than 30% of TBZ-treated controls were considered as potential inhibitors of MLKL phosphorylation. Conversely, compounds that maintained p-MLKL levels above 70% were selected because they are presumed to prevent the formation of pores in the plasma membrane by interfering with oligomerization.
A clinical chemical library containing 2150 items (Korea Chemical Bank, South Korea), under phase 1–3 clinical trials, including FDA-approved drugs, was used to screen for necroptosis inhibitors. Each chemical was dissolved in DMSO and diluted to 20 μM in DPBS for treatment.
THP-1-HMGB1-Lucia^TM cells were pretreated with the pan-caspase inhibitor Z-VAD-FMK (50 μM, tlrl-vad, InvivoGen) and each chemical for 1 h, and followed by TNF-α (100 ng/mL, TNF0501, NKMAXBio, Seongnam, S. Korea) and Smac mimetic BV6 (10 μM, B1332-5, Biovision, Santa Clara, CA, USA), termed TBZ mixture, were added for necroptosis screening. The RIP1 inhibitor, NEC-1 (1846, Biovision), and MLKL inhibitor, NSA (432531-71-0, Sigma-Aldrich, St. Louis, MO, USA), were used as controls. The cell supernatant was harvested to measure HMGB1 levels using a luciferase assay kit (E1500, Promega, Madison, WI, USA) by a luminometer (Centro XS3 LB 960, Berthold Technologies, Bad Wildbad, Germany). The inhibition of necroptosis (%) was calculated as: (sample-treated data – medium-only data) × 100/(TBZ-treated data – medium-only data). APO [STK088477, (6aS)-6-methyl-5,6,6a,7-tetrahydro-4H-dibenzo[de,g]quinoline-10,11-diol, Vitas-M Laboratory, Hong Kong] was stored at −70 °C after aliquoting with DMSO. APO was used after dilution in DPBS. APO is susceptible to auto-oxidation in solution in the presence of light and air. DPBS containing 5 mM DTT was used for Re-APO. Ox-APO was prepared by incubating APO in DPBS at 25 °C for 24 h in the presence of light and air, followed by removal of any precipitate by filtration through 0.2 μm.

T2 sequence (Q8NB16 2-154 R145A/R146A/F148A/M150A): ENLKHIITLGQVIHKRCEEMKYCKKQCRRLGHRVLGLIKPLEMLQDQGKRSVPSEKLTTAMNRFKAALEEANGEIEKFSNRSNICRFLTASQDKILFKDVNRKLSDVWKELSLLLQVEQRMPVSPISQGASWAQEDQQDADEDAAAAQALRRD
T1 sequence (Q8NB16 2-154 F148A): as the sequence (Q8NB16 2-154 R145A/R146A/F148A/M150A) above, with A144R, A145R, A149M counted along it

SMILES | fold weaker binding of single mutant (Nt-hMLKL^F148A) | binding in SPR [1] | activity at 20 µM (THP-1-HMGB1-Lucia cells)
CN1CCc2cccc3c4c(cc1c23)C=CC(=O)C4=O [Ox-APO] | ~ 10 fold | retained binding | 
CN1CCc2cccc3c2[C@@H]1Cc1ccc(O)c(O)c1-3 [S62, (6aS)-6-methyl-5,6,6a,7-tetrahydro-4H-dibenzo[de,g]quinoline-10,11-diol] |  |  | 7.1%
